# System: Human keratinocytes (HatKat)
# Experiment: Growth of keratinocytes, cell count in Coulter counter after three days
# Type: cell-based
# Details: 10 ng/ml EGF versus medium with 0.5% FCS
# Description: Human keratinocytes (HatKat) were grown in keratinocyte growth medium (TCS Cellworks Ltd.) until 20% confluence. Then, in the same medium, the keratinocytes were grown for three days with 0.5% foetal calf serum (FCS), at which point the cells were counted in a Coulter® counter. The cell numbers obtained are set out in Table 3 below.
substance,measurement,value
"epidermal growth factor (NSDSECPLSHDGYCLHDGVCMYIEALDKYACNCVVGYIGERCQYRDLKWWELR; UniProt P01133 971-1023, looked up) [EGF, epidermal growth factor, comparison growth factor at 10 ng/ml]",increase in the growth of keratinocytes (in words),relatively modest increase
